Experimental data reported in publication PMC5796017, “Enantiomeric Effect of D-Amino Acid Substitution on the Mechanism of Action of α-Helical Membrane-Active Peptides” (International Journal of Molecular Sciences, 2017).
Values after ≈ are worked out from the molar mass of the structure shown.

Experiments:
S. epidermidis ATCC12228 = assay: Antimicrobial activity, microtiter dilution MIC; type: cell-based, Staphylococcus epidermidis; conditions: G+; MH medium, 5 × 10^5 CFU/mL, 37 °C, 24 h, triplicate
Method: (§1) The antimicrobial activity of the peptides was determined by the standard microtiter dilution method and indicated as MIC (minimal inhibitory concentration) as described previously. Briefly, bacteria were cultured in Mueller–Hinton (MH) medium overnight at 37 °C, diluted to a final inoculum of 5 × 10^5 colony-forming units (CFU)/mL with MH and loaded into 96-well microtiter plates (90 μL/well) with serial dilution of peptides (10 μL/well), with a further incubation at 37 °C for 24 h. MIC was expressed as the lowest peptide concentration that inhibited the growth of bacteria. The antimicrobial assays were repeated in triplicate.

MIA PaCa-2 = assay: MTT cell viability assay; type: cell-based, human; conditions: MIA PaCa-2, MTT, 24 h; mean ± SEM of three independent determinations
Method: (§2) HeLa, MIA PaCa-2, HPAC, and Bxpc-3 cells were maintained in Dulbecco’s modified Eagle medium) with 10% fetal bovine serum, penicillin (100 U/mL), and streptomycin ([…]) in a humid atmosphere at 37 °C with 5% CO2. The effect of the peptides on the survival of HeLa, MIA PaCa-2, HPAC, and Bxpc-3 cells was determined by 3-(4,5-dimethyl-2-thiazolyl)-2,5-diphenyl-2H-tetrazolium bromide (MTT) assay, as described in a previous study. Briefly, cells were seeded in 96-well plates at a density of 5000 per well. After overnight incubation, cells were incubated, in the absence, or presence of various concentrations of peptides for 24 h. Then, the formazan crystals formed by MTT were dissolved with dimethyl sulfoxide (DMSO) and the absorbance was determined at 492 nm with a microplate reader (GF-M3000; Gaomi Caihong Analytical Instruments Co., Shandong, China). The results were expressed as IC50 values, representing the concentration at which cell viability was reduced by 50%. The cytotoxicity assays were repeated in triplicate.

BxPC-3 = assay: MTT cell viability assay; type: cell-based, human; conditions: BxPC-3, MTT, 24 h; mean ± SEM of three independent determinations
Method: as §2

HeLa = assay: MTT cell viability assay; type: cell-based, human; conditions: 24 h, mean ± SEM of three independent determinations
Method: as §2

HPAC = assay: MTT cell viability assay; type: cell-based, human; conditions: 24 h, mean ± SEM of three independent determinations
Method: as §2

P. aeruginosa ATCC27853 = assay: Antimicrobial activity, microtiter dilution MIC; type: cell-based, Pseudomonas aeruginosa; conditions: G−; MH medium, 5 × 10^5 CFU/mL, 37 °C, 24 h, triplicate
Method: as §1

S. aureus ATCC25923 = assay: Antimicrobial activity, microtiter dilution MIC; type: cell-based, Staphylococcus aureus; conditions: G+; MH medium, 5 × 10^5 CFU/mL, 37 °C, 24 h, triplicate
Method: as §1

[1] = Circular dichroism (CD) secondary structure; type: physicochemical; conditions: for [θ]222, benign / [θ]222, 50% TFE: CD, 75 μM peptide, 25 °C; for [θ]222, benign: KP buffer (100 mM KCl, 50 mM KH2PO4/K2HPO4, pH 7.4); for [θ]222, 50% TFE / α-Helix (%), 50% TFE (relative helicity): KP buffer with 50% TFE; for α-Helix (%), 50% TFE (relative helicity) / α-Helix (%), benign: relative to molar ellipticity of V13K in 50% TFE; for α-Helix (%), benign: KP buffer
Excerpt: The influence of the amino acid substitutions on the peptide secondary structure were investigated using circular dichroism (CD) spectroscopy under benign conditions (KP buffer) and under conditions designed to mimic the hydrophobic environment of the membrane (KP buffer with 50% TFE). D-amino acid substitutions reduced the helicity of the peptide analogs relative to that of peptide V13K, in both KP buffer and KP buffer with 50% TFE. […] As shown in Table 2 and Figure S1, the values of the relative helicity of peptides with polar face substitutions are in the order of K14D (76.99%) > S11D/K14D (51.33%) > S11D/K14D/T15D (38.67%). Similarly, the relative helicity of the peptides with substitutions on the non-polar face follows the same trend: A12D (70.83%) > F9D/A12D (38.26%) > F9D/A12D/V16D (36.41%). Since the values of the relative helicity of the peptides with D-amino acid substitutions on the non-polar face were less than those peptide analogs with the same number of D-amino acid substitutions on the polar face, it is clear that the amino acid residues on the non-polar face may be more important for stabilizing the α-helical structure than residues on the polar face.
The secondary structures of the peptides were examined using a Jasco J-810 CD spectrometer (Jasco, Easton, MD, USA) at 25 °C as described previously. […] The mean residue molar ellipticities were calculated according to the equation [θ] = θ/10lCMn, in which, θ represents the ellipticity in millidegrees, l is the optical path length of the cuvette in centimeters, CM is the peptide concentration in mol/L, and n is the number of residues in the peptide. The mean residue molar ellipticities at 222 nm, [θ]222 (degree·cm^2·dmol^−1), were used to calculate the relative helical content of the peptides.

[2] = RP-HPLC retention time as relative hydrophobicity; type: physicochemical; conditions: 25 °C, used by the paper as measure of relative hydrophobicity
Method: The RP-HPLC retention time has been widely used to represent the relative hydrophobicity of peptides in many studies.The relative hydrophobicity of the peptides was determined by the RP-HPLC retention times at 25 °C. The change in hydrophobicity of the peptides caused by D-amino acid substitutions was mainly due to the disruption of the helical structure.

E. coli ATCC25922 = assay: Antimicrobial activity, microtiter dilution MIC; type: cell-based, Escherichia coli; conditions: G−; MH medium, 5 × 10^5 CFU/mL, 37 °C, 24 h, triplicate
Method: as §1

[3] = test system: human red blood (hRBC) cells; assay: Hemolytic activity assay; type: cell-based; conditions: for MHC (minimal hemolytic concentration): 2% human RBC in PBS, 37 °C, 2 h, absorbance 578 nm, triplicate
Method: The […] of the peptides was measured by a hemolytic activity assay as described previously. Briefly, healthy human RBCs were collected using an anticoagulation tube with EDTAK2 and centrifuged at 1000 rpm for 5 min. The erythrocytes were washed three times, then diluted to a concentration of 2% in phosphate-buffered saline (PBS). The peptides were serially diluted in PBS and 70 μL of the peptide solutions and 2% RBC suspension were added simultaneously to each well of a 96-well plate (round bottom) for a further incubation at 37 °C for 2 h. Then, the plates were centrifuged for 10 min at 3000 rpm and the supernatant (90 μL) was transferred to a 96-well plate (flat bottom). The absorbance of the supernatant was measured on a microplate reader at 578 nm. Erythrocytes in PBS and distilled water were used as the negative (0%) and positive (100%) controls, respectively. The hemolytic activity was calculated as the percentage of experimental group over positive control (100%), after subtraction of negative control (0%). The hemolytic assays were repeated in triplicate.

Row | Compound | MIC (S. epidermidis ATCC12228) [µM] | IC50 (MIA PaCa-2) [µM] | IC50 (BxPC-3) [µM] | IC50 (HeLa) [µM] | IC50 (HPAC) [µM] | MIC (P. aeruginosa ATCC27853) [µM] | MIC (S. aureus ATCC25923) [µM] | [θ]222, benign [1] [degree·cm^2·dmol^−1] | [θ]222, 50% TFE [1] | α-Helix (%), 50% TFE (relative helicity) [1] [%] | α-Helix (%), benign [1] [%] | tR (RP-HPLC retention time), relative hydrophobicity [2] [min] | MIC (E. coli ATCC25922) [µM] | MHC (minimal hemolytic concentration) [3] [µM] | Hemolytic activity compared with V13K ([3]; human red blood cells)
1 | CC[C@H](C)[C@H](NC(=O)[C@H](C)NC(=O)[C@H](CCCCN)NC(=O)[C@H](CC(C)C)NC(=O)[C@H](C)NC(=O)[C@@H](NC(=O)[C@H](Cc1c[nH]cn1)NC(=O)[C@H](CC(C)C)NC(=O)[C@H](NC(=O)[C@@H](NC(=O)[C@H](CCCCN)NC(=O)[C@H](CCCCN)NC(=O)[C@@H](C)NC(=O)[C@H](CO)NC(=O)[C@H](CCCCN)NC(=O)[C@H](Cc1ccccc1)NC(=O)[C@@H](NC(=O)[C@H](CCCCN)NC(=O)[C@H](CC(C)C)NC(=O)[C@H](Cc1ccccc1)NC(=O)[C@H](CO)NC(=O)[C@H](CCCCN)NC(=O)[C@H](Cc1c[nH]c2ccccc12)NC(=O)[C@H](CCCCN)NC(C)=O)[C@@H](C)O)[C@@H](C)O)C(C)C)[C@@H](C)O)C(=O)N[C@@H](CO)C(=O)N[C@@H](CO)C(N)=O [A12D/V16D] | 125 (≈ 374 µg/mL) | 46.2 ± 3 | 125 ± 5.9 | 60.1 ± 1.2 | 41.4 ± 1.4 | 32 (≈ 95.7 µg/mL) | 125 (≈ 374 µg/mL) | −3435.72 | −23,452.9 degree·cm^2·dmol^−1 | 46.42 | 6.8 | 39.79 | 125 (≈ 374 µg/mL) | >500 | much less hemolytic activity than V13K
2 | CC[C@H](C)[C@H](NC(=O)[C@H](C)NC(=O)[C@H](CCCCN)NC(=O)[C@H](CC(C)C)NC(=O)[C@H](C)NC(=O)[C@@H](NC(=O)[C@H](Cc1c[nH]cn1)NC(=O)[C@H](CC(C)C)NC(=O)[C@@H](NC(=O)[C@@H](NC(=O)[C@H](CCCCN)NC(=O)[C@H](CCCCN)NC(=O)[C@@H](C)NC(=O)[C@H](CO)NC(=O)[C@H](CCCCN)NC(=O)[C@@H](Cc1ccccc1)NC(=O)[C@@H](NC(=O)[C@H](CCCCN)NC(=O)[C@H](CC(C)C)NC(=O)[C@H](Cc1ccccc1)NC(=O)[C@H](CO)NC(=O)[C@H](CCCCN)NC(=O)[C@H](Cc1c[nH]c2ccccc12)NC(=O)[C@H](CCCCN)NC(C)=O)[C@@H](C)O)[C@@H](C)O)C(C)C)[C@@H](C)O)C(=O)N[C@@H](CO)C(=O)N[C@@H](CO)C(N)=O [F9D/A12D] | 64 (≈ 191 µg/mL) | 38.8 ± 2.9 | 125 ± 3.7 | 59.8 ± 0.5 | 42.4 ± 3 | 32 (≈ 95.7 µg/mL) | 125 (≈ 374 µg/mL) | −2319.89 | −19,328.6 degree·cm^2·dmol^−1 | 38.26 | 4.6 | 40.04 | 125 (≈ 374 µg/mL) | 250 | –
